Measured values as given in paper PMC4580410, “Characterization of Kbot21 Reveals Novel Side Chain Interactions of Scorpion Toxins Inhibiting Voltage-Gated Potassium Channels” (PLoS ONE, 2015).
Where a SMILES comes first, the peptide text is derived from it. Bridges are numbered along the chain shown (N, C = ends).

Experiments:
[1] = test system: rKV1.1; test: Two-electrode voltage-clamp, Xenopus oocytes expressing rKV1.1; type: cell-based, rat; settings: 1 μM toxin, TEVC, n ≥ 3
Description: (§1) For the expression of the VGPCs (rKV1.1, rKV1.2, hKV1.3, rKV1.4, rKV1.6, Shaker IR, rKV2.1) in Xenopus oocytes, the linearized plasmids were transcribed using the T7 or SP6 mMESSAGE-mMACHINE transcription kit (Ambion, USA). The harvesting of stage V-VI oocytes from anaesthetized female Xenopus laevis frog was previously described. Oocytes were injected with 50 nl of cRNA at a concentration of 1 ng/nl using a micro-injector (Drummond Scientific, USA). The oocytes were incubated in ND96 solution containing (in mM): NaCl, 96; KCl, 2; CaCl2, 1.8; MgCl2, 2 and HEPES, 5 (pH 7.4), supplemented with 50 mg/l gentamycin sulfate. The use of the frogs was in accordance with the license number LA1210239.
(§2) Two-electrode voltage-clamp recordings were performed at room temperature (18–22°C) using a Geneclamp 500 amplifier (Molecular Devices, USA) controlled by a pClamp data acquisition system (Axon Instruments, USA). Whole cell currents from oocytes were recorded 1–4 days after injection. Bath solution composition was ND96 (in mM): NaCl, 96; KCl, 2; CaCl2, 1.8; MgCl2, 2 and HEPES, 5 (pH 7.4). Voltage and current electrodes were filled with 3 M KCl. Resistances of both electrodes were kept between 0.7–1.5 MΩ. The elicited currents were filtered at 1 kHz and sampled at 500 Hz using a four-pole low-pass Bessel filter. Leak subtraction was performed using a-P/4 protocol. […]

[2] = test system: rKV1.2; test: Two-electrode voltage-clamp, Xenopus oocytes expressing rKV1.2; type: cell-based, rat; settings: 1 μM toxin, TEVC, n ≥ 3
Description: as §1, §2

[3] = test system: hKV1.3; test: Two-electrode voltage-clamp, Xenopus oocytes expressing hKV1.3; type: cell-based, human; settings: 1 μM toxin, TEVC, n ≥ 3
Description: as §1, §2

[4] = test system: rKV1.4; test: Two-electrode voltage-clamp, Xenopus oocytes expressing rKV1.4; type: cell-based, rat; settings: 1 μM toxin, TEVC, n ≥ 3
Description: as §1, §2

[5] = molecular target: T1, rKV1.6 (Rattus norvegicus, UniProt P17659); test: Two-electrode voltage-clamp, Xenopus oocytes expressing rKV1.6; type: cell-based
T1 construct: expressed in transfected cells; host or cells: Xenopus laevis oocytes injected with cRNA
Description: as §1
Two-electrode voltage-clamp recordings were performed at room temperature (18–22°C) using a Geneclamp 500 amplifier (Molecular Devices, USA) controlled by a pClamp data acquisition system (Axon Instruments, USA). Whole cell currents from oocytes were recorded 1–4 days after injection. Bath solution composition was ND96 (in mM): NaCl, 96; KCl, 2; CaCl2, 1.8; MgCl2, 2 and HEPES, 5 (pH 7.4). Voltage and current electrodes were filled with 3 M KCl. Resistances of both electrodes were kept between 0.7–1.5 MΩ. The elicited currents were filtered at 1 kHz and sampled at 500 Hz using a four-pole low-pass Bessel filter. Leak subtraction was performed using a-P/4 protocol. KV1.1-KV1.6 and Shaker IR currents were evoked by 500 ms depolarizations to 0 mV followed by a 500 ms pulse to -50 mV, from a holding potential of -90 mV. In order to investigate the current-voltage relationship, current traces were evoked by 10 mV depolarization steps from a holding potential of -90 mV. All data represent at least 3 independent experiments (n ≥ 3) and are presented as mean ± standard error.

[6] = test system: Shaker IR; test: Two-electrode voltage-clamp, Xenopus oocytes expressing Shaker IR; type: cell-based, insect; settings: 1 μM toxin, TEVC, n ≥ 3
Description: as §1, §2

[7] = test system: rKV2.1; test: Two-electrode voltage-clamp, Xenopus oocytes expressing rKV2.1; type: cell-based, rat; settings: 1 μM toxin, TEVC, n ≥ 3
Description: as §1, §2

[8] = test system: C57/ Bl/6 mice; settings: literature value for comparison; cited from earlier work
Description: We injected increasing doses, from 0.8 to 25 ng, of Kbot21 to two sets of C57bL/6 mice containing each six individuals by i.c.v. The LD50 value corresponds to […] or 1μg/kg body weight which is 5 times to other LD50 values of some scorpion peptides, such as Maurotoxin, well characterized for their activity on potassium channels (LD50 = 100 ng).

T1 sequence (P17659 whole entry): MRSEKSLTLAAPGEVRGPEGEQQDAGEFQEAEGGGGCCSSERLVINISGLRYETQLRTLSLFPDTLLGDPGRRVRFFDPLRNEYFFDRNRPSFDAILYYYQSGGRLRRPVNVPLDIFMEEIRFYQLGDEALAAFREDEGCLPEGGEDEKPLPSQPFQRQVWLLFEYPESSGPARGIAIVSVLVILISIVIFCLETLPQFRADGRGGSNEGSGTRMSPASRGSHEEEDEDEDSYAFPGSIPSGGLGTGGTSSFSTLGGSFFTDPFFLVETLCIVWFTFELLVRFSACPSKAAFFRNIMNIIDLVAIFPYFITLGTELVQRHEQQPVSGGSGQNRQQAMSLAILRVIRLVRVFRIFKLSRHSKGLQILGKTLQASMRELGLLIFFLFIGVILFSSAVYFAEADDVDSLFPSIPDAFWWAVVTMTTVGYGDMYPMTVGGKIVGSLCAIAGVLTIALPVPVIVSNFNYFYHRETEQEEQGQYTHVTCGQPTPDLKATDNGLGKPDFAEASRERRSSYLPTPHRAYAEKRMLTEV

Molecule	Inhibition of potassium current [1]	Inhibition of potassium current [2]	Inhibition of potassium current [3]	Inhibition of potassium current [4]	Reversibility of Kv1.6 block upon washout ([5]; 500 nM toxin, current recovered quickly and completely upon washout, n = 3)	Inhibition of potassium current ([5]; 1 μM toxin, Xenopus oocytes, TEVC, n ≥ 3)	V1/2 (midpoint of activation) ([5]; after application of 100 nM Kbot21, control 8.5 ± 0.9 mV, n ≥ 3, mean ± standard error, SEM)	Hill coefficient ([5]; concentration-response curve on Kv1.6, mean ± standard error, n ≥ 3, SEM)	Inhibition of Shaker IR current [6]	Inhibition of potassium current [7]	LD50 [8]
CC[C@H](C)[C@@H]1NC(=O)[C@@H]2CSSC[C@H](NC(=O)[C@H](C)NC(=O)[C@H](C)N)C(=O)N[C@@H](Cc3ccc(O)cc3)C(=O)N[C@@H](CO)C(=O)N[C@@H](CO)C(=O)N[C@@H](CC(=O)O)C(=O)N[C@H]3CSSC[C@H](NC(=O)[C@H](CCCCN)NC(=O)[C@H](CO)NC(=O)[C@H](CC(=O)O)NC1=O)C(=O)N[C@@H](CCCCN)C(=O)N[C@H](C(=O)N[C@@H](Cc1ccc(O)cc1)C(=O)N[C@@H](CCCCN)C(=O)O)CSSC[C@H](NC(=O)[C@H](CCCCN)NC(=O)[C@H](C(C)C)NC(=O)[C@H](CCCNC(=N)N)NC3=O)C(=O)N[C@@H](CCCNC(=N)N)C(=O)N[C@@H](C)C(=O)N[C@@H](CCSC)C(=O)NCC(=O)N[C@@H](Cc1ccccc1)C(=O)N[C@@H](CO)C(=O)N[C@@H](CO)C(=O)NCC(=O)N[C@@H](CCCCN)C(=O)N2 [Kbot21] (H-AACYSSDCRVKCRAMGFSSGKCIDSKCKCYK-OH; disulfide 3-22, 8-27, 12-29 (inferred); N-terminus and C-terminus assumed)	completely inhibited	completely inhibited	completely inhibited	failed to exert any activity	reversible	completely inhibited	6.9 ± 2.9 mV	1.1 ± 0.1	65%	failed to exert any activity	–
Maurotoxin: scorpion peptide well characterized for activity on potassium channels (VSCTGSKDCYAPCRKQTGCPNAKCINKSCKCYGC; UniProt P80719 1-34, looked up)	–	–	–	–	–	–	–	–	–	–	100 ng
